From patent US20050043280A1, “Use of active ingredients having a mu-opioid receptor agonist action and an opiod receptor antognist action, as combination drugs for the treatment of cancer” (priority 2001, published 2005)

Key:
MCF-7 cells [1] = details: cited from earlier work
[2] = Development of the body weight during treatment (FIG. 1B); details: 3 weeks of treatment as in FIG. 1A
Description: In an established pharmacological animal model, naked mice (NMRI-nu/nu; Harlan, Borchen) received a subcutaneous injection containing a cell suspension (5×10^6 cells in 300 μl per mouse) of human breast carcinoma cells (MCF-7 cell line).
A total of 5×10^6 cells were injected subcutaneously per mouse. […] The animals were treated with 10 mg/kg β-estradiol valerate (i.m.) one day before and 7 and 14 days after the injection of tumor cells. […] Tumor volume=(long diameter×short diameter^2)/2.
FIG. 1B Development of the body weight during treatment. Treatment as in 1A.

MCF-7 cells [3] = assay: Flow cytometry of annexin V and 7-AAD binding, apoptosis rate (FIG. 6); assay type: cell-based, human
MCF-7 cells [4] = details: 24 hours after treatment; 0.5, 1.0, 2.0 mmol; combination 0.5 mmol morphine+0.1 mmol naloxone and 1 mmol+1 mmol
[5] = test system: human MCF-7 breast cancer cells; assay: Cell proliferation test (FIG. 3A); assay type: cell-based; details: for proliferation of MCF-7 cells compared to the untreated control: 100 or 500 μmol DAMGO, 100 μmol naloxone, 500 μmol DAMGO+100 μmol naloxone
From the text: FIG. 3A Proliferation of MCF-7 cells in vitro after treatment with 100 μmol DAMGO (solid triangles), 500 μmol DAMGO (solid squares)(left), 100 μmol naloxone (open circles) or the mixture containing 500 μmol DAMGO+100 μmol naloxone (open triangles)(right) versus untreated control cells (solid circles). Means±SEM from 4-6 repeat experiments.

MCF-7 cells [6] = assay: Cytotoxic effects, survival rate of the cells (FIG. 3B); details: standardized to untreated control cells = 100%; combinations with 100 μmol DAMGO
From the text: The same cell line was used to determine the cytotoxic effects of these active ingredients by determining the rate of survival of the cells (FIG. 3B). […] TNFα was used as a positive control.
The survival rate was standardized to the number of untreated control cells representing 100%. Means±SEM from 4 repeat experiments.

MCF-7 cells [7] = assay: DNA cleavage rate with apoptosis assay kit (FIG. 4); assay type: cell-based, human; details: 500 μmol; incubation for 24 hours
Description: In order to characterize apoptosis (cell death) in more detail, a commercial apoptosis assay kit that is in common use in science was used to measure the rate of DNA cleavage (FIG. 4).
FIG. 4 DNA cleavage rate after incubation of MCF-7 cells for 24 hours with the active ingredients at the dosages indicated on the abscissa. Means±SEM from 6 independent experiments. DNA cleavage was measured by assaying the mono- and oligonucleosomes with an apoptosis detection kit containing antihistones and anti-DNA antibodies.

[8] = 1 mmol, 24 hours after treatment (not shown)
[9] = 2 mmol, 24 hours after treatment
[10] = 3 mmol, 24 hours after treatment

Compound | apoptosis in MCF-7 cells (positive control, known effect) (MCF-7 cells [1]) | body weight [2] | number of cells in late apoptosis (MCF-7 cells [3]; [8]) | number of cells in late apoptosis (MCF-7 cells [3]; [9]) | number of cells in late apoptosis (MCF-7 cells [3]; [10]) | number of cells in G1 phase (block of cell cycle from G1 to S phase) (MCF-7 cells [4]) | proliferation of MCF-7 cells compared to the untreated control [5] | survival rate of MCF-7 cells (cytotoxic effect) (MCF-7 cells [6]) | rate of DNA cleavage compared to the untreated control (MCF-7 cells [7]) | time at which the maximal number of cells was attained ([5]; DAMGO-treated cultures) | cell death in treated cultures ([5]; between 48 and 72 hours)
TNFα | induce apoptosis |  |  |  |  |  |  |  |  |  | 
CN1CC[C@]23c4c5ccc(O)c4O[C@H]2[C@@H](O)C=C[C@H]3[C@H]1C5 [morphine] |  | weight loss | no longer detectable | less pronounced | clear increase in the number of cells in late apoptosis | concentration-dependent increase in the number of cells in G1 phase |  |  |  |  | 
C=CCN1CC[C@]23c4c5ccc(O)c4O[C@H]2C(=O)CC[C@@]3(O)[C@H]1C5 [naloxone] |  | increased slightly | no longer detectable | less pronounced | clear increase in the number of cells in late apoptosis | block the cell cycle in a similar fashion | growth-inhibitory effect | concentration-dependent positive effect on the survival rate | increase significantly |  | 
C[C@@H](NC(=O)[C@@H](N)Cc1ccc(O)cc1)C(=O)NCC(=O)N(C)[C@@H](Cc1ccccc1)C(=O)NCCO [DAMGO, (D-Ala2, N-Methyl-Phe4, Gly-ol5)enkephalin] |  |  |  |  |  |  | reduced the cell division cycle substantially in a concentration-dependent fashion | concentration-dependent positive effect on the survival rate | increase significantly | 48 h | a fraction of the cells on DAMGO treatment died
